According to PMC2918394 (Journal of medicinal chemistry, 2010):

Key:
[1] = target: SARS-CoV PLpro (Severe acute respiratory syndrome coronavirus, UniProt P0C6X7); assay type: biochemical
[2] = tested on: SARS-CoV; assay type: cell-based; details: SARS-CoV infected Vero E6 cells

1-[1-(2-Naphthyl)ethyl]-4-(4-methoxybenzylamino)carbonylpiperazine [Compound 20]
PLpro inhibitory activity (in words) [1]: no activity against PLpro

COc1ccc(CNC(=O)C2CCN(Cc3cccc4ccccc34)CC2)cc1 [Compound 3]
antiviral activity (in words) [2]: does not show any antiviral activity

COc1ccccc1CNC(=O)C1CCN(Cc2cccc3ccccc23)CC1 [Compound 7a, 1-[(1-Naphthyl)methyl]-4-[(2-methoxybenzylamino)carbonyl]piperidine]
PLpro inhibitory activity (in words) [1]: very poor inhibitory activity

COc1ccccc1CNC(=O)C1CCN([C@H](C)c2cccc3ccccc23)CC1 [Compound 15a, 1-[(R)-1-(1-Naphthyl)ethyl]-4-(2-methoxybenzylamino)carbonylpiperidine]
reduction in potency over 15b and 15c [1]: 3 fold

COc1ccc(CNC(=O)C2CCN([C@H](C)c3cccc4ccccc34)CC2)cc1 [Compound 15c, 1-[(R)-1-(1-Naphthyl)ethyl]-4-(4-methoxybenzylamino)carbonylpiperidine]
potency enhancement over 3 [1]: > 170 fold

COc1cccc(CNC(=O)C2CCN([C@@H](C)c3ccc4ccccc4c3)CC2)c1 [Compound 15f, 1-[(S)-1-(2-Naphthyl)ethyl]-4-(3-methoxybenzylamino)carbonylpiperidine]
antiviral activity (in words) [2]: no antiviral activity | more potent than the 2(R)-derivative 15d [1]: 2 fold

CC(C)(c1cccc2ccccc12)N1CCC(C(=O)NCc2ccc3c(c2)OCO3)CC1 [Compound 15k, 1-[1-Methyl-1-(1-naphthyl)ethyl]-4-[3,4-(methylenedioxy)benzylamino]carbonylpiperidine]
PLpro inhibitory activity (in words) [1]: inactive
